Test results taken from EP0942911B1, “BENZOPYRANOPYRROLE AND BENZOPYRANOPYRIDINE ALPHA-1 ADRENERGIC COMPOUNDS” (Abbott Laboratories, priority 1996, dated 1998).
Counter-ions that a name gives are not always drawn. Like-named read-outs stand apart in the source and are kept apart here.

Columns and labels:
α-1d adrenoreceptor = molecular target: T1, α-1d adrenoreceptor (Rattus norvegicus, UniProt P23944); experiment: biochemical; format: binding
T1 sequence (P23944 1-561): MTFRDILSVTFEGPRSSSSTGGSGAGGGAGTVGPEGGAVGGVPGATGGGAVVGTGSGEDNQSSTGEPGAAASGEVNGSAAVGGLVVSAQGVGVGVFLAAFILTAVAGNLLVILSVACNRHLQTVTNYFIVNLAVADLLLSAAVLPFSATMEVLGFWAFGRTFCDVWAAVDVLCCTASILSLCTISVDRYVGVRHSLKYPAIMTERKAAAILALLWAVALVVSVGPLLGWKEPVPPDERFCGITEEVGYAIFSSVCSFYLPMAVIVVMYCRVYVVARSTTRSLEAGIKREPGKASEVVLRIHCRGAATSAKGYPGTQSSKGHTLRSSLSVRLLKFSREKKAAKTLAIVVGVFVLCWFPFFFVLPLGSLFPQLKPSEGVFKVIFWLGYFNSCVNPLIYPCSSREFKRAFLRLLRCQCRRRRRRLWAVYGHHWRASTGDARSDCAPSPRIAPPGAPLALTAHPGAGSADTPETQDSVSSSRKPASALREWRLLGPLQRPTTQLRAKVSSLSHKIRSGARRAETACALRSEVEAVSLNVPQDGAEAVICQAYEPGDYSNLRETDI
Method in brief: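 Radioactivity counted by liquid scintillation after radioligand binding to membranes. Receptors: cloned α-1a, α-1b, α-1d stably expressed in LTK mouse fibroblasts (G418 selection, SV40 early promoter); rat submaxillary gland membranes for pharmacologically defined α-1A.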

α-1A adrenoreceptor = molecular target: T2, α-1A adrenoreceptor (Rattus norvegicus, UniProt P43140); experiment: cell-based; settings: phenylephrine-induced contraction, Schild plot; for Kb: read-out: In Vitro Characterization (pA2) Rat Vas (converted)
T2 sequence (P43140 1-466): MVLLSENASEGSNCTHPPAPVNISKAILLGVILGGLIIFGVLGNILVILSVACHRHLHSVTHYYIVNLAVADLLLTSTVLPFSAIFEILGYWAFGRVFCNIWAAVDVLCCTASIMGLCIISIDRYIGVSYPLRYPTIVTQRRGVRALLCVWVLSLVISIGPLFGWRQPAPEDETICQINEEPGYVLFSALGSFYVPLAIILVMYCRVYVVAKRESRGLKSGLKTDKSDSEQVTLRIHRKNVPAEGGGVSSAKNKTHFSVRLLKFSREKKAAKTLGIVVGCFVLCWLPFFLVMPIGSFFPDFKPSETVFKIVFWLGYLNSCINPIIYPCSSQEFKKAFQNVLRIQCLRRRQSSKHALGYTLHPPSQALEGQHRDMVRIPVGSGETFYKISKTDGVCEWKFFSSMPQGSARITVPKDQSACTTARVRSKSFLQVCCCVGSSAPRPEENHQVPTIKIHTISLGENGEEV
Text: Functional assays indicative of pharmacologically defined α-1 adrenoreceptors were used to further characterize compounds. Inhibition of phenylephrine (PE)-induced contraction of canine prostate smooth muscle can be correlated with α-1A adrenoreceptor activation. […] For each of these models, agonist dose response curves were repeated against increasing concentrations of test agent to derive a Schild plot [log ([…]) against log (molarity of test agent)] to determine the pA2.

[1] = read-out: Radioligand Binding (Ki, nM) 1d (Rat)
[2] = [3H]-prazosin radioligand, cloned receptor in LTK cell membranes, read-out: Radioligand Binding (Ki, nM) 1d (Rat)

Molecule	Ki (α-1d adrenoreceptor; [1]) [nM]	Kb (α-1A adrenoreceptor) [nM]	Ki (α-1d adrenoreceptor; [2]) [nM]	In Vitro Characterization (pA2) Rat Vas (α-1A adrenoreceptor)	Ki (α-1d adrenoreceptor) [nM]
COc1cccc2c1[C@H]1CN(CCCCn3c(=O)[nH]c4c(sc5nccnc54)c3=O)C[C@@H]1CO2.Cl.Cl (racemic) [Example 74, 3-[4-((±)-trans-9-Methoxy-1,2,3,3a,4,9b-hexahydro-[1]-benzopyrano[3,4-c]pyrrol-2-yl)butyl]-pyrazino[2',3':4,5]thieno[3,2-d]pyrimidine-2,4(1H,3H)-dione dihydrochloride]	2.94	0.794			
COc1cccc2c1[C@@H]1CN(CCCCn3c(=O)[nH]c4c(sc5ccncc54)c3=O)C[C@H]1CO2 [Example 41, 3-[4-((3aS,9bR)-trans-9-Methoxy-1,2,3,3a,4,9b-hexahydro-[1]-benzopyrano[3,4-c]pyrrol-2-yl)butyl]-pyrido[3',4':4,5]thieno[3,2-d]pyrimidine-2,4(1H,3H)-dione dihydrochloride]		0.355	0.041		
COc1cccc2c1[C@@H]1CN(CCCCn3c(=O)[nH]c4c(sc5c(OC)ccnc54)c3=O)C[C@H]1CO2 [Example 17, 3-[4-((3aS,9bR)-trans-9-Methoxy-1,2,3,3a,4,9b-hexahydro-[1]-benzopyrano[3,4-c]pyrrol-2-yl)butyl]-6-methoxy-pyrido[2',3':4,5]thieno[3,2-d]pyrimidine-2,4(1H,3H)-dione dihydrochloride]		0.112	0.19		
COc1ccc2sc3c(=O)n(CCCCN4C[C@@H]5COc6cccc(OC)c6[C@@H]5C4)c(=O)[nH]c3c2n1 [Example 30, 3-[4-((3aR,9bR)-cis-9-Methoxy-1,2,3,3a,4,9b-hexahydro-[1]-benzopyrano[3,4-c]pyrrol-2-yl)butyl]-8-methoxy-pyrido[2',3':4,5]thieno[3,2-d]pyrimidine-2,4(1H,3H)-dione hydrochloride]		0.251	0.222		
COc1cccc2c1[C@@H]1CN(CCCCn3c(=O)[nH]c4c(sc5cnccc54)c3=O)C[C@H]1CO2 [Example 42, 3-[4-((3aS,9bR)-trans-9-Methoxy-1,2,3,3a,4,9b-hexahydro-[1]-benzopyrano[3,4-c]pyrrol-2-yl)butyl]-pyrido[4',3':4,5]thieno[3,2-d]pyrimidine-2,4(1H,3H)-dione dihydrochloride]		0.257	0.066		
COc1cccc2c1[C@@H]1CN(CCCCn3c(=O)[nH]c4c(sc5cnccc54)c3=O)C[C@@H]1CO2 [Example 29, 3-[4-((3aR,9bR)-cis-9-Methoxy-1,2,3,3a,4,9b-hexahydro-[1]-benzopyrano[3,4-c]pyrrol-2-yl)butyl]-pyrido[4',3':4,5]thieno[3,2-d]pyrimidine-2,4(1H,3H)-dione dihydrochloride]		0.437	0.466		
COc1cccc2c1[C@@H]1CN(CCCCn3c(=O)[nH]c4c(sc5ccncc54)c3=O)C[C@@H]1CO2 [Example 28, 3-[4-((3aR,9bR)-cis-9-Methoxy-1,2,3,3a,4,9b-hexahydro-[1]-benzopyrano[3,4-c]pyrrol-2-yl)butyl]-pyrido[3',4':4,5]thieno[3,2-d]pyrimidine-2,4(1H,3H)-dione dihydrochloride]		0.407	0.195		
3-[4-((3aR,9bR)-cis-9-Methoxy-1,2,3,3a,4,9b-hexahydro-[1]-benzopyrano[3,4-c]pyrrol-2-yl]butyl]-7-methoxy-pyrido[3',2':4,5]thieno[3,2-d]pyrimidine-2,4(1H,3H)-dione hydrochloride [Example 33]			0.701	9.02	
COc1cccc2c1[C@@H]1CN(CCCCn3c(=O)[nH]c4c(sc5ccc(OC(C)C)nc54)c3=O)C[C@H]1CO2 [Example 51, 3-[4-((3aS,9bR)-trans-9-Methoxy-1,2,3,3a,4,9b-hexahydro-[1]-benzopyrano[3,4-c]pyrrol-2-yl)butyl]-8-isopropoxy-pyrido[2',3':4,5]thieno[3,2-d]pyrimidine-2,4(1H,3H)-dione hydrochloride]		0.631	0.371		
COc1cccc2c1[C@@H]1CN(CCCCn3c(=O)[nH]c4c(sc5ccc(Cl)nc54)c3=O)C[C@@H]1CO2 [Example 37, 3-[4-((3aR,9bR)-cis-9-Methoxy-1,2,3,3a,4,9b-hexahydro-[1]-benzopyrano[3,4-c]pyrrol-2-yl)butyl]-8-chloro-pyrido[2',3':4,5]thieno[3,2-d]pyrimidine-2,4(1H,3H)-dione hydrochloride]		0.204	0.195		
COc1cccc2c1[C@@H]1CN(CCCCn3c(=O)[nH]c4c(sc5c(Cl)nccc54)c3=O)C[C@@H]1CO2 [Example 53, 3-[4-((3aR,9bR)-cis-9-Methoxy-1,2,3,3a,4,9b-hexahydro-[1]-benzopyrano[3,4-c]pyrrol-2-yl)butyl]-6-chloro-pyrido[4',3':4,5]thieno[3,2-d]pyrimidine-2,4(1H,3H)-dione]		0.49	0.664		
COc1cccc2c1[C@@H]1CN(CCCCn3c(=O)[nH]c4c(sc5nc(Cl)ccc54)c3=O)C[C@H]1CO2 [Example 47, 3-[4-((3aS,9bR)-trans-9-Methoxy-1,2,3,3a,4,9b-hexahydro-[1]-benzopyrano[3,4-c]pyrrol-2-yl)butyl]-7-chloro-pyrido[3',2':4,5]thieno[3,2-d]pyrimidine-2,4(1H,3H)-dione hydrochloride]		1.12	0.189		
COc1cccc2c1[C@@H]1CN(CCCCn3c(=O)[nH]c4c(sc5ncc(-c6ccccc6)nc54)c3=O)C[C@@H]1CO2 [Example 39, 3-[4-((3aR,9bR)-cis-9-Methoxy-1,2,3,3a,4,9b-hexahydro-[1]-benzopyrano[3,4-c]pyrrol-2-yl)butyl]-8-phenyl-pyrazino[2',3':4,5]thieno[3,2-d]pyrimidine-2,4(1H,3H)-dione hydrochloride]		0.162	2.15		
O=c1[nH]c2c(sc3cccnc32)c(=O)n1CCCCN1C[C@@H]2COc3ccccc3[C@@H]2C1 (racemic) [Example 70, 3-[4-((±)-cis-1,2,3,3a,4,9b-hexahydro-[1]-benzopyrano[3,4-c]pyrrol-2-yl)butyl]-pyrido[2',3':4,5]thieno[3,2-d]pyrimidine-2,4(1H,3H)-dione dihydrochloride]	0.482	6.31			
COc1cc2nc(N3CCN(C(=O)C4COc5ccccc5O4)CC3)nc(N)c2cc1OC (stereo not shown) [Doxazosin, doxazosin, reference compound]				8.69	0.231
COc1cccc2c1[C@@H]1CN(CCCCn3c(=O)[nH]c4c(sc5ncccc54)c3=O)C[C@@H]1CO2 [Example 34, 3-[4-((3aR,9bR)-cis-9-Methoxy-1,2,3,3a,4,9b-hexahydro-[1]-benzopyrano[3,4-c]pyrrol-2-yl)butyl]-pyrido[3',2':4,5]thieno[3,2-d]pyrimidine-2,4(1H,3H)-dione hydrochloride]		0.589	0.339		
COc1ccc2c(n1)sc1c(=O)n(CCCCN3C[C@H]4COc5cccc(OC)c5[C@@H]4C3)c(=O)[nH]c12 [Example 46, 3-[4-((3aS,9bR)-trans-9-Methoxy-1,2,3,3a,4,9b-hexahydro-[1]-benzopyrano[3,4-c]pyrrol-2-yl)butyl]-7-methoxy-pyrido[3',2':4,5]thieno[3,2-d]pyrimidine-2,4(1H,3H)-dione hydrochloride]		0.162	0.114		
